These results are taken from patent US5441983A, “Treatment of infection by enveloped virus with calix(N)arene compounds” (Genelabs Incorporated, priority 1992, dated 1995).

In one test the test system is HSV-1 KOS. Description: Inhibition of viral yield, wild type HSV-1 KOS. The following applies: Human alphaherpesvirus 1, HeLa, read-out: ID90.
Another test relates to RSV. The experiment in a line: Inhibition of RSV cytopathic effect in HEp2 cells. The format is cell-based. The following applies: human respiratory syncytial virus, HEp-2, read-out: ED50 RSV. For orientation: Protection from cytopathic effect is a common read-out in antiviral testing.
A further test deals with HSV-1 and HSV-2. The experiment in a line: Viral yield inhibition, HeLa cells, plaque count on Vero cells. To be noted: up to 10 μg/ml, FIGS. 29A and 29B, depending on drug and virus.
A further test has as its system HSV-1 KOS(PMEA)'. Description: Inhibition of viral yield, drug-resistant HSV-1 KOS(PMEA)'. The following applies: Human alphaherpesvirus 1, HeLa, read-out: ID90.
In another test the test system is Influenza A (Taiwan). The experiment in a line: Inhibition of influenza A cytopathic effect (clumping) in MDCK cells. The format is cell-based, Influenza A virus (A/Taiwan strain). To be noted: Influenza A virus, 24 h, 50% reduction in percent clumped cells, read-out: ED50 Influenza A (Taiwan). On the procedure: With virus infection, a cytopathic effect characterized by cell clumping is observed. For each compound tested, drug concentrations of 0.1, 1, 10, 25, and 100 μg/ml were added to cultured cells at the time of virus infection, as detailed in Examples 9 and 11. […] The inhibition of clumping was plotted as a function of drug concentration, to determine the dose effective to produce a 50% reduction in the percent clumped cells, measured with respect to control (no drug treatment).
Assays to assess the antiviral activity of KY- and Y-compounds in tissue culture were performed in 96-well flat-bottom tissue culture plates (Falcon 307), using conditions similar to those used in the cytotoxicity assays described above. In these assays, compound was tested in quadruplicate by serially diluting the compound in 2% FCS-MEM using serial two-fold dilutions (0.05 ml/well). A 0.05 ml volume of the appropriate virus containing approximately 100 median tissue culture infectious doses (TCID50) was then added to all wells except those set aside as antiviral and tissue control wells. Next, approximately 3×10^3 HEp2 cells (0.1 ml) were added to each well. Control wells containing antiviral and no virus (antiviral control), containing virus but no antiviral (virus control), or containing medium without virus or antiviral (tissue control), were included in each test. The challenge virus was then back titrated. All assay plates were incubated at 35° C. for 5 to 7 days in a 5% CO2 incubator.
The anti-influenza A activity of KY compounds was evaluated as described in Example 9, except that MDCK cells (kidney cell line) was used for infection in vitro by influenza virus (strain A/Taiwan).

Another test concerns HSV-2 333. The experiment in a line: Inhibition of viral yield, wild type HSV-2 333. To be noted: Human alphaherpesvirus 2, HeLa, read-out: ID90.
In another test the test system is adenovirus. Description: Inhibition of adenovirus cytopathic effect in Vero cells. The format is cell-based, adenoviruses 5 and 7. The following applies: 1-100 μg, 24 h. On the procedure: (§1) The ability of KY compounds to inhibit cell infection by a rhinovirus and adenoviruses 5 and 7 which are non-enveloped viruses, was similarly studied. Vero cells (10^5) were infected with a rhinovirus in the presence of KY-1, at concentrations ranging between 1-100 μg. Twenty-four hours after virus infection, the cells were examined for cytopathic effect, evidencing viral infection.
Vero cells were infected with adenovirus in the presence of KY-1, also at concentrations ranging between 1-100 μg, and twenty-four hours after virus infection, the cells were examined for cytopathic effect.

In another test the test system is HSV-1. The experiment in a line: Plaque reduction assay, HSV-1, Vero cells. The format is cell-based, HSV-1 (Kos-1). The following applies: Human alphaherpesvirus 1, Vero, plaque reduction, Vero cells.
Test [1] relates to HSV-1 binding to Vero cells. The experiment in a line: Inhibition of binding of radiolabeled HSV-1 to Vero cells. The format is cell-based. The following applies: 10 μg/ml KY-1, FIG. 30. Here is the method: In one study, the ability of a macrocyclic compound to block HSV binding to infectable cells was examined as described in Example 14. Briefly, Vero cells were exposed to radiolabeled HSV-1 or HSV-2 in the absence of KY compound or in the presence of 10 μg/ml KY-1, and binding of the virus at times up to 4 hours after exposure to the virus was measured. […] In the absence of drug, the amount of bound virus increased steadily over two hours, and slightly from 2-4 hours. By contrast, virus binding to cells peaked at about 1/2 hour in the presence of drug, presumably reflecting the time during which the binding events effective to block virus binding to the cells are equilibrating.
At time intervals of 5, 30, 60, 120, and 240 minutes, cells were removed from the suspension, washed two times with PBS, and assayed for bound virus (cpm ^3 H). The results are given in FIG. 30, where the control virus binding is indicated by solid circles, and the drug-inhibited binding, by open rectangles.

The next test relates to rhinovirus. The experiment in a line: Inhibition of rhinovirus cytopathic effect in Vero cells. The format is cell-based. The following applies: 1-100 μg, 24 h. Here is the method:
as §1

Test [2] concerns HSV-2. Description: Plaque reduction assay, HSV-2, Vero cells. The format is cell-based, HSV-2 (333). To be noted: Human alphaherpesvirus 2, Vero. For orientation: In a plaque reduction assay, fewer plaques than in the control indicate reduced infectivity or spread.
The subject of the next test is HSV-2 333 (DHPG)'. The experiment in a line: Inhibition of viral yield, drug-resistant HSV-2 333(DHPG)'. To be noted: Human alphaherpesvirus 2, HeLa, read-out: ID90.
For test [3], the system named is HSV-2. The experiment in a line: Topical treatment of genital HSV-2 infection, guinea pigs, second study. The following applies: for % Animals with Lesions / Lesion Score (AUC) / Mean Peak lesion score: 24 h.
Method: In another study using the guinea pig genital model described above, animals were infected with HSV-2, then treated with KY-1 or Y-1 topically at concentrations of 2% or 5% drug. […] Animals were treated and scored daily for severity of infection for 19 days.
The MS strain of HSV-2 was utilized for the experimental animal infection. Female Hartley strain guinea pigs (Charles River Breeding Laboratories, Kingston, NY) weighing 250-300 g were inoculated intravaginally with 2.0×10^5 plaque-forming units of HSV-2 one hour after being swabbed for removal of vaginal secretions.
Formulations of KY-1 or Y-1 were prepared by dissolving the compound in a 1.5% methyl cellulose solution such that final concentration of compound was 2% or 5% (wt/wt). Control animals were given either no treatment (N=10 animals) or treatment with placebo (1.5% methylcellulose solution).
To determine the effect of therapy on the development and spread of external genital lesions, lesion severity was scored on a 0-5+ scale through the primary infection period (19-21 days). Lesion score-day areas and virus titer-day areas under the curve, and peak lesion scores and peak virus titers between untreated and placebo-treated or placebo-treated and drug-treated animals were compared using the Mann-Whitney U range sum test. A p-value of 0.05 or less was considered significant.
Animals were scored daily for 19 days following inoculation for presence of lesions and severity of lesions (on a 0-5+ point scale). Lesion scores were tabulated as area under the curve of daily lesion score vs. time (days) and peak lesion score observed. A known antiviral agent, acyclovir (ACV) was administered in a 5% formulation to 8 animals as a positive control in the study.

In general, IC50 refers to the concentration at which inhibition is half-maximal.

In brackets after ≈: the same amount, converted by molar mass.

Method for HSV-1 KOS(PMEA)': (§2) These compounds tested were the nucleoside analogs acyclovir (ACV), ganciclovir (DHPG), phosphonoformate (PFA), and phosphomethoxyethyladenine (PMEA). Inhibition of viral yield was determined, as above, by infecting Hela cells in the presence of wild type or drug-resistant strains of HSV-1 or HSV-2, and serial dilutions of a selected anti-viral compound, and infecting Vero cells with serial dilutions of the Hela cell lysate, as above.
(§3) The KOS (HSV-1) and 333 (HSV-2) are wild type viruses; the KOS(PMEA)' and KOS(PFA)' are drug-resistant HSV-1 strains having a DNA polymerase mutation. The 333(DHPG) strain is a drug-resistantHSV-2 strain having a thymidine kinase mutation.
(§4) The following strains of HSV-1 and HSV-2 virus were used: KOS, a wild type HSV-1 virus; KOS (PMEA) and KOS (PFA), both drug-resistant HSV-1 viruses having a DNA polymerase mutation; 333, a wild type HSV-2 HSV-2 virus, and 333 (DHPG), a drug-resistant HSV-2 virus having a thymidine kinase mutation.
(§5) After growth at 37° C. for 24 hours in 2 ml of RPMI-1640 containing 2% FCS and penicillin and streptomycin (P/S), the cells were frozen at -70° C. until the time for titration. The cells were freeze/thawed 3 times to release virus from the cells, serially diluted 10 fold, and the serial dilutions were added to Vero cells in culture. After 2 hours incubation at 37° C. the virus was removed and 0.5 ml methycellulose (4K cps) in RPMI-1640 and 2% FCS+P/S was added. Two days later, the medium was removed. The cells were stained in 0.8% crystal violet in 50% ethanol. The plaques formed were counted and the titer was calculated from the fold of dilutions. From the drug dose response, the concentration of each drug required to effect a 90% inhibition of virus yield, the IC90 concentration was determined.
Method for HSV-1 and HSV-2: The ability of selected naphthalene-subunit compounds to inhibit HSV-1 and HSV-2 viral yields at selected drug concentrations up to 10 μg/ml was assessed in the viral inhibition assay described in Example 7. Briefly, cultured Hela cells were exposed to serially diluted KY compound and virus, allowed to grow for 24 hours, then freeze/thawed 3 times to release virus particles. Vero cells were infected serial dilutions of the viral lysates were assayed for plaque counts as described in Example 6.
1×10^6 HeLa S3 were plated in 25 T flasks in 5 ml RPMI-1640+5% FCS+P/S. 24 hours later, the medium was aspirated and replaced with 6×10^6 PFU HSV-1 or HSV-2, and serial dilutions of selected KY compounds, at 10, 5, 2.5, 1.25, and 0.625 μg/ml drug. After growth at 37° C. for 24 hours in 2 ml of RPMI-1640 containing 2% FCS and P/S, the cells were frozen at -70° C. until the time for titration. The cells were freeze/thawed 3 times to release virus from the cells, and serially diluted 10 fold.
1×10^5 Vero cells were plated in each well of 24 well multi-dish in 1 ml RPMI-1640+5% FCS+P/S+0.1% methylcellulose (15 cps). On the second day, after removal of the medium, the 10 fold serially diluted virus in 100 μl was added in duplicate. […] The plaques formed were counted and the titer was calculated from the fold of dilutions.
Method for HSV-2 333 (DHPG)': as §2, §3, §4, §5

As for `O=S(=O)(O)c1cc2cc(S(=O)(=O)O)c3c(O)c2c(O)c1Cc1c(S(=O)(=O)O)cc2cc(S(=O)(=O)O)c(c(O)c2c1O)Cc1c(S(=O)(=O)O)cc2cc(S(=O)(=O)O)c(c(O)c2c1O)Cc1c(S(=O)(=O)O)cc2cc(S(=O)(=O)O)c(c(O)c2c1O)C3` [KY-1], the IC90 in the test with HSV-1 KOS is 1.9 µg/mL (≈ 1.43 µM); in the test with HSV-1 KOS(PMEA)', 2.6 µg/mL (≈ 1.96 µM); in the test on HSV-2 333 it was 3.2 µg/mL (≈ 2.41 µM); in the test with HSV-2 333 (DHPG)', 3.7 µg/mL (≈ 2.78 µM). Moreover, the EC50 with RSV is 0.19 µg/mL (≈ 0.143 µM); with Influenza A (Taiwan), above 188 µg/mL. Further, the “dose dependent drop in viral yield” value with HSV-1 and HSV-2 is reported as 3-5 orders of magnitude. Further, in the test on adenovirus, the “reduction in cell clumping, adenovirus” value is given as “No reduction in cell clumping”. Moreover, the IC50 was found to be 2.7 µg/mL (≈ 2.03 µM) with HSV-1 and 1.7 µg/mL (≈ 1.28 µM) in the test on HSV-2 [2]. Further, the “time at which virus binding to cells peaked” value in test [1] is “about 1/2”. In the test with rhinovirus, the “reduction in cell clumping, rhinovirus” value was “No reduction in cell clumping”. Also, the “% Animals with Lesions” value came out at 70% in the test with HSV-2 [3] (2%) and 50% with HSV-2 [3] (6%). In addition, the “Lesion Score (AUC)” value with HSV-2 [3] (2%) amounted to 16.2; with HSV-2 [3] (6%), 17.5. Further, the “Mean Peak lesion score” value is 2.2 in the test on HSV-2 [3] (2%) and 1.7 with HSV-2 [3] (6%). Further, the “lesions, in words” value with HSV-2 [3] (24 hours post-infection, 6% KY-1 or Y-1, 2% KY-1) is “reduced numbers of lesion bearing animals and reduced severity of lesions”.
